The values that follow are results of earlier work, collected in patent publication US20070059740A1, “METHOD OF TARGETING A2B ADENOSINE RECEPTOR ANTAGONIST THERAPY” (priority 2005, published 2007).

SMILES strings stand for the structures.

This data set has as its system Zucker rats. The following applies: A2B adenosine receptor antagonist, reported by LaNoue et al., U.S. Pat. No. 6,060,481.

In the case of `CCCn1c(=O)c2[nH]c(-c3ccc(C=CC(=O)O)cc3)nc2n(CCC)c1=O` [1,3-dipropyl-8-(p-acrylic)-phenylxanthine], the glucose tolerance entry is on record as “improves glucose tolerance”.
